Here are results for one compound from patent publication US20240353338A1 (priority 2023, published 2024).

For the assay, the system named is early Delta variant of SARS-CoV-2. Type of assay: cell-based.

For `C[C@@H](OC(C)(C)C)[C@H](NC(=O)OCc1ccccc1)C(=O)N[C@@H](CC1CCCCC1)C(=O)N[C@H](C=O)C[C@@H]1CCNC1=O` [MPI8], the “antiviral effectiveness (virus growth by reverse transcriptase quantitative PCR)” value is given as “inhibition of virus growth”.
